Values quoted from earlier work in US20030232784A1, “Hyaluronic acid-associated superoxide dismutase mimics and their use in the treatment of joint pain” (priority 2002, published 2003).

Tested on: patients with active classical rheumatoid arthritis

Q: Which “effect on rheumatoid arthritis symptoms” value (intraarticular injection, patients with active classical rheumatoid arthritis) does the source give for “Orgotein®: a bovine SOD with a Cu/Zn catalytic site” here?
A: The value was “ameliorated a number of symptoms”.

Q: What about the immunogenicity (reason for removal from the market) of the same substance?
A: Its immunogenicity is “development of immune responses against the bovine enzyme”.
